Test results published in US20060052451A1, “Method” (priority 2002, published 2006).
Read-outs that look alike come from different tables or passages of the source.

Assays:
[1] = Plasma levels of PFOA after 11 days oral dosing in SD rats (LC/MS/MS); type: in vivo, rat; details: 25 mg/kg oral daily for 11 days, 24 hours after final administration
Procedure: The study consisted of one control group of 8 male CD Sprague Dawley rats (8-10-weeks old; obtained from Harlan, UK) and 4 test groups that contained 4 rats. Animals received powdered RM1 diet ad libitum for the duration of the study. […] All chemicals were dissolved in Mazola corn oil (at 2.5 mg/ml) and test compounds were administered at 10 ml/kg bodyweight. Control animal received Mazola corn oil only. All animals were sacrificed after 11 days. Animals were killed by exposure to rising concentrations of CO2, and blood was harvested into lithium/heparin tubes for plasma.
Rat plasma samples were denatured by adding acetonitrile, and the amount of perfluorooctanoic acid (PFOA) present was determined by LC/MS/MS.

[2] = 21-day diet study, bodyweights of SD rats; type: in vivo, rat; details: 300 ppm in diet, 21 days
Procedure: This experiment investigated the effect of compounds of different % linearity on body weight over a longer study period.
The diet study consisted of one control group of 4 male animals and 4 test groups of 4 male animals (as specified earlier in this Example). Animals received powdered RM1 diet alone, or RM1 diet containing 300 ppm XEN1001 or XEN1002, ad libitum for the duration of the study. Bodyweights were measured daily for 21 days.

[3] = system: three human tumour-derived cell lines (HT-29, MCF7, PC3); experiment: SRB growth inhibition, summary over the three human tumour cell lines; type: cell-based; details: over HT-29, MCF7 and PC3
Procedure: (§1) The effect of perfluorinated compounds on the inhibition of tumour cell growth was assessed iii vitro using three human tumour-derived cell lines. Cancer cell lines were tested using the sulphorhodamine B (SRB) assay (which measures cellular protein and is directly related to cell number), which is utilised by the […] to screen anti-cancer agents.
(§2) HT-29 cells (human colon tumour-derived), MCF7 cells (human breast cancer-derived) and PC3 cells (human prostate cancer-derived) were harvested and diluted (to 5×10^4 cells per ml, 1×10^5 cells per ml and 7.5×10^4 cells per ml respectively) in RPMI 1640 medium containing 5% FBS, 2 mM glutamine and. 50 μg/ml gentamicin. 100 μl of cell suspension per well was added to 96 well plates and allowed to attach overnight. Cells were exposed to test compounds dissolved in DMSO in 100 μl of medium to give final drug concentrations of 0, 0.3, 1, 3, 10, 30, 100, 300, 1000 and 3000 μM (and DMSO at 0.25%). (n=6 for each drug concentration). After 48 hours, cells were fixed in 10% trichloroacetic acid (TCA) at 4° C. for 1-2 hours then washed using water and subsequently air-dried. 100 μl SRB solution (0.4%) in 1% Acetic Acid was added to each well, and plates were incubated at room temperature for 10 minutes. Unbound dye was removed by washing with 1% acetic acid. Plates were air-dried and bound stain was solubilised in 10 mM Tris base and the absorbance read at 520 nm.

[4] = system: PC3 cells (human prostate cancer-derived); experiment: SRB growth inhibition assay, PC3 cells; type: cell-based
Procedure: as §1, §2

[5] = system: HT-29 cells (human colon tumour-derived); experiment: SRB growth inhibition assay, HT-29 cells; type: cell-based; details: 48 hours exposure
Procedure: as §1, §2

[6] = 7-day oral gavage study, metabolic parameters, body weight and food consumption in CR SD rats; type: in vivo, rat; details: for Cholesterol (plasma) / Glucose (plasma) / Insulin (plasma) / Triglycerides (plasma): n=5
Procedure: Two groups (n=5) of CR SD rats (approximately 300 g) were treated with 2 dose levels of perfluorinated compounds (15 and 25 mg/kg/day body weight). Animals were administered test substances, dissolved in corn oil, by oral gavage, daily for 7 days. One group of 20 CR SD rays was also treated with vehicle (corn oil) alone. Body weight and food consumption were monitored daily.
Twenty-four hours after the last dose the animals were killed by an increasing concentration of carbon dioxide. Blood was collected by cardiac puncture and plasma was prepared and stored at −70° C. until analysed.
Plasma was analysed for triglycerides, cholesterol, and glucose, using kits purchased from Sigma. Concentrations of plasma insulin were determined using a commercially available enzyme-immunoassay-based kit from Amersham Biosciences. All assays were carried out as specified by the manufacturer.

PPAR delta = target: T1, PPAR delta (Homo sapiens, UniProt Q03181); experiment: PPAR delta transactivation assay in COS-1 cells; type: cell-based; design: Fold activation of PPAR delta: dose or concentration left out as unconfirmed; details: for Fold activation of PPAR delta: mean±SD n=3; for Inhibition of activation of PPAR delta (by a factor of): transactivation assay
T1 construct: 25 ng of vector DNA carrying PPAR alpha, delta or gamma; expressed in transfected cells; host or cells: COS-1 (African green monkey kidney cells)
T1 sequence (Q03181 1-441): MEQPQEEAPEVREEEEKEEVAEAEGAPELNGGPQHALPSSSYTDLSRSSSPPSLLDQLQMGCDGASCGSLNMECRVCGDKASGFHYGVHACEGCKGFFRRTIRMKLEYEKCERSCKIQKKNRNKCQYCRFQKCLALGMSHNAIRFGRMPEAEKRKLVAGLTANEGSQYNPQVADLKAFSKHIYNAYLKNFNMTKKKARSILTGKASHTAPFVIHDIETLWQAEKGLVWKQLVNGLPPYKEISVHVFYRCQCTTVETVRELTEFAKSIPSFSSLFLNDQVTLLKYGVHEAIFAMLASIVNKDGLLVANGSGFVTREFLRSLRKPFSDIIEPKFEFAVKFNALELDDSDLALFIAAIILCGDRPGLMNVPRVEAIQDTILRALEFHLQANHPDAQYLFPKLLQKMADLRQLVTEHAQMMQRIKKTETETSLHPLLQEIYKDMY

PPAR gamma = target: T2, PPAR gamma (Homo sapiens, UniProt P37231); experiment: PPAR gamma transactivation assay in COS-1 cells; type: cell-based
T2 construct: 25 ng of vector DNA carrying PPAR alpha, delta or gamma; expressed in transfected cells; host or cells: COS-1 (African green monkey kidney cells)
T2 sequence (P37231 1-505): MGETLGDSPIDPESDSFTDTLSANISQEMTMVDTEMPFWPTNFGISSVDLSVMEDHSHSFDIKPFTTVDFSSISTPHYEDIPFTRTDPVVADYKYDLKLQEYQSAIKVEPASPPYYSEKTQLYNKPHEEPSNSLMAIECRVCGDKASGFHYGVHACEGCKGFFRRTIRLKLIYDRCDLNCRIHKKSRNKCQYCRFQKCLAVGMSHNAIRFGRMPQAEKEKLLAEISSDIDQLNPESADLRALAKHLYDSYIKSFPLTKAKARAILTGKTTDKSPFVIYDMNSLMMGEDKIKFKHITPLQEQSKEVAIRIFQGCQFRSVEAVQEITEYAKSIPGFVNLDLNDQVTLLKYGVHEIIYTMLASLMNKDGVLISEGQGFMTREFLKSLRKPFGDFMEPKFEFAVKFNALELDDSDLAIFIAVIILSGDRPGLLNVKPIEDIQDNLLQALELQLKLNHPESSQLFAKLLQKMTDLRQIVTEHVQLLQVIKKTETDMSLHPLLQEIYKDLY

[7] = system: MCF7 cells (human breast cancer-derived); experiment: SRB growth inhibition assay, MCF7 cells; type: cell-based; details: 48 hours exposure
Procedure: as §1, §2

[8] = target: T3, human PPAR-gamma ligand binding domain (Homo sapiens, UniProt P37231); experiment: PPAR gamma ligand binding (displacement of cis-parinaric acid)
T3 sequence (P37231 202-505): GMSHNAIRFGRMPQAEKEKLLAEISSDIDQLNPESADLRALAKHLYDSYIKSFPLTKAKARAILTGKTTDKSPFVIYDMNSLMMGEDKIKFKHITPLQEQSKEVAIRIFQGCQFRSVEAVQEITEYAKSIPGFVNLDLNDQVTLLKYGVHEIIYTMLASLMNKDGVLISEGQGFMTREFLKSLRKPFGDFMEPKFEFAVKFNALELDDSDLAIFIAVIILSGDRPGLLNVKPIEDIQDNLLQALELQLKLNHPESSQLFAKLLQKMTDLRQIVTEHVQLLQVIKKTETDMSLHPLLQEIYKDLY

[9] = target: T4, human PPAR-alpha ligand binding domain (Homo sapiens, UniProt Q07869); experiment: PPAR alpha ligand binding (displacement of DAUDA)
T4 sequence (Q07869 179-468): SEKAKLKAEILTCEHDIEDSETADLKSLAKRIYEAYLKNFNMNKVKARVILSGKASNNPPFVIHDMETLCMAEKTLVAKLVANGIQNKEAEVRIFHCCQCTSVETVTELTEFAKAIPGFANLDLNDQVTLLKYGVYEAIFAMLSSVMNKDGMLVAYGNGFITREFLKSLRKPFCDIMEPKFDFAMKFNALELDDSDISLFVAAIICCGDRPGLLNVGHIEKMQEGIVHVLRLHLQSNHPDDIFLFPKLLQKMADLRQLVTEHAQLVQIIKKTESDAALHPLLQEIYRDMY

[10] = 15 mg/kg/day oral gavage 7 days
[11] = 25 mg/kg/day oral gavage 7 days

Row | Compound | Cholesterol (plasma) [6, 10] | Glucose (plasma) [6, 10] | Insulin (plasma) [6, 10] | Triglycerides (plasma) [6, 10] | Cholesterol (plasma) [6, 11] | Glucose (plasma) [6, 11] | Insulin (plasma) [6, 11] | Triglycerides (plasma) [6, 11] | Fold activation of PPAR delta (PPAR delta) | Inhibition of activation of PPAR delta (by a factor of) (PPAR delta) | other results
1 | N.O=C(O)C(F)(F)C(F)(F)C(F)(F)C(F)(F)C(F)(F)C(F)(F)C(F)(F)F [XEN1002, Ammoniumperfluorooctanoate] | – | – | – | – | – | – | – | – | – | – | Plasma concentration of PFOA (free acid) [1]: equimolar concentrations of PFOA; Lost bodyweight up to day [2]: 10 days; Weight loss compared with XEN1001 [2]: more pronounced
2 | O=C(O)C(F)(F)C(F)(F)F [PFPA, Perfluropropionic acid] | 1.28 ± 0.10 mmol/L | 15.46 ± 1.13 mmol/L | 129 ± 36.05 ng/mL | 1.02 ± 0.38 mmol/L | 1.39 ± 0.39 mmol/L | 14.97 ± 1.29 mmol/L | 179.7 ± 177.1 ng/mL | 0.95 ± 0.17 mmol/L | 0.63 ± 0.25 fold | 1.6 | IC50 [3]: ~3000 µM; IC50 ([4]; 48 hours exposure): > 3000 µM; IC50 [5]: > 3000 µM; Bodyweight change ([6]; 15 and 25 mg/kg/day, continued till end of treatment): lost bodyweight after day 3; Fold activation of PPAR gamma (PPAR gamma; at 1 mM, mean±SD n=3): 1.86 ± 0.81 fold; IC50 [7]: > 3000 µM; Reduction in binding affinity for PPAR gamma compared to PFOA [8]: ~2 fold; Kd ([8]; read-out: PPAR Receptor Binding Kd Gamma (apparent Kd), cis-parinaric acid displacement): 0.6 µM; Kd ([9]; read-out: PPAR Receptor Binding Kd Alpha (apparent Kd), DAUDA displacement): 2 µM
3 | O=C(O)C(F)(F)C(F)(F)C(F)(F)C(F)(F)C(F)(F)C(F)(F)F [PFHA, Perfluoroheptanoic acid] | 1.50 ± 0.23 mmol/L | 16.43 ± 2.59 mmol/L | 114.2 ± 90.06 ng/mL | 0.94 ± 0.20 mmol/L | 1.46 ± 0.17 mmol/L | 18.15 ± 2.78 mmol/L | 165.1 ± 114.4 ng/mL | 0.75 ± 0.26 mmol/L | 0.45 ± 0.28 fold | 2.2 | IC50 ([3]; Homo sapiens): 200 to 600 µM; IC50 ([4]; Homo sapiens, PC-3, 48 hours exposure): 321 µM; IC50 ([5]; Homo sapiens, HT-29, 48 h): 371 µM; Fold activation of PPAR gamma (PPAR gamma; at 10 μM (maximal activation by test compound), value in parenthesis = positive control at 10 μM): 3.43 ± 2.62 fold; IC50 ([7]; Homo sapiens, MCF7, 48 h): 573 µM; Kd [8]: 99 µM; Reduction in binding affinity for PPAR alpha compared to PFOA [9]: 30 fold
